In ChEMBL document CHEMBL5653631, “A Potent and Selective ULK1 Inhibitor Suppresses Autophagy and Sensitizes Cancer Cells to Nutrient Stress” (iScience, 2018):

Legend:
[1] = target: T1, Tyrosine-protein kinase ZAP-70 (Homo sapiens) (UniProt P43403); test: Inhibition of human recombinant ZAP70 at 500 nM related to control ULK1
T1 sequence (whole entry): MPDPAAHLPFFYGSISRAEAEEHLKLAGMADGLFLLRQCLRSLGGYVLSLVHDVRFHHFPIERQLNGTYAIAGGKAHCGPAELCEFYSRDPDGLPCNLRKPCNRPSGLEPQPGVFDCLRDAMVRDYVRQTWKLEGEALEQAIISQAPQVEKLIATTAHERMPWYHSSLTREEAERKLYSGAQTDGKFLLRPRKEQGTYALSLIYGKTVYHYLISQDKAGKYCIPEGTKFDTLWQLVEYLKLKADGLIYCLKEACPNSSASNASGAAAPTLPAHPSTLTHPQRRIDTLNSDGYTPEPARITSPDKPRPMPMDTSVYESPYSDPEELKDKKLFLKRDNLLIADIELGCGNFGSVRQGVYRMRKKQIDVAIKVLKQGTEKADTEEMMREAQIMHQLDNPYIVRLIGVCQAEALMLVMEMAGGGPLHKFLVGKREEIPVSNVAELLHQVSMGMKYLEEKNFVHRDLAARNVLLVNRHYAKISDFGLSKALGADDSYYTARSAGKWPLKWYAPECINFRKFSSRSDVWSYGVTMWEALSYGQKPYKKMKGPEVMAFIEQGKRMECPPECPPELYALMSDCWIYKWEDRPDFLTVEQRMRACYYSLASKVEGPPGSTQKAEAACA

[2] = target: T2, Eukaryotic elongation factor 2 kinase (Homo sapiens) (UniProt O00418); test: Inhibition of human recombinant eEF2K at 15 nM related to control ULK1
T2 sequence (whole entry): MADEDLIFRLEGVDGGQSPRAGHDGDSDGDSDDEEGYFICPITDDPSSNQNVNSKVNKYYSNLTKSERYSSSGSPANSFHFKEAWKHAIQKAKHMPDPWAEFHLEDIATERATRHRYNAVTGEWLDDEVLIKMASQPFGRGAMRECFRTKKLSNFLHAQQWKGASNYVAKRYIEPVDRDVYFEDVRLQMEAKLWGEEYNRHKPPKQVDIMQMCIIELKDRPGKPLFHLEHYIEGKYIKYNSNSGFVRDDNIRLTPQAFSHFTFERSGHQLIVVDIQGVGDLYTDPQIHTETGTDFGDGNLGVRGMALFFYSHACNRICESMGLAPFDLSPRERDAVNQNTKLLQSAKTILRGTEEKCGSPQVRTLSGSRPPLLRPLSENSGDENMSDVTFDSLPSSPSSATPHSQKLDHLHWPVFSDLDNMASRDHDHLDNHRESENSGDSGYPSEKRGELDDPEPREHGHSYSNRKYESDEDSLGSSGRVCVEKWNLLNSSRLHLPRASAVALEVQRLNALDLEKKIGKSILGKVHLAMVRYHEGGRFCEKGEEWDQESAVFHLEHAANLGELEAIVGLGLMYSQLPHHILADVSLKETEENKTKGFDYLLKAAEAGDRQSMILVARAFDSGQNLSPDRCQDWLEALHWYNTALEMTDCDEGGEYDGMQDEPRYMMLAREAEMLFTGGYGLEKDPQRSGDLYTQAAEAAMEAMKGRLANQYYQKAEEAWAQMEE

[3] = target: T3, Myosin-IIIb (Homo sapiens) (UniProt Q8WXR4); test: Inhibition of human recombinant MYO3B at 15 nM in presence of ATP by radiometric assay relative to control
T3 sequence (whole entry): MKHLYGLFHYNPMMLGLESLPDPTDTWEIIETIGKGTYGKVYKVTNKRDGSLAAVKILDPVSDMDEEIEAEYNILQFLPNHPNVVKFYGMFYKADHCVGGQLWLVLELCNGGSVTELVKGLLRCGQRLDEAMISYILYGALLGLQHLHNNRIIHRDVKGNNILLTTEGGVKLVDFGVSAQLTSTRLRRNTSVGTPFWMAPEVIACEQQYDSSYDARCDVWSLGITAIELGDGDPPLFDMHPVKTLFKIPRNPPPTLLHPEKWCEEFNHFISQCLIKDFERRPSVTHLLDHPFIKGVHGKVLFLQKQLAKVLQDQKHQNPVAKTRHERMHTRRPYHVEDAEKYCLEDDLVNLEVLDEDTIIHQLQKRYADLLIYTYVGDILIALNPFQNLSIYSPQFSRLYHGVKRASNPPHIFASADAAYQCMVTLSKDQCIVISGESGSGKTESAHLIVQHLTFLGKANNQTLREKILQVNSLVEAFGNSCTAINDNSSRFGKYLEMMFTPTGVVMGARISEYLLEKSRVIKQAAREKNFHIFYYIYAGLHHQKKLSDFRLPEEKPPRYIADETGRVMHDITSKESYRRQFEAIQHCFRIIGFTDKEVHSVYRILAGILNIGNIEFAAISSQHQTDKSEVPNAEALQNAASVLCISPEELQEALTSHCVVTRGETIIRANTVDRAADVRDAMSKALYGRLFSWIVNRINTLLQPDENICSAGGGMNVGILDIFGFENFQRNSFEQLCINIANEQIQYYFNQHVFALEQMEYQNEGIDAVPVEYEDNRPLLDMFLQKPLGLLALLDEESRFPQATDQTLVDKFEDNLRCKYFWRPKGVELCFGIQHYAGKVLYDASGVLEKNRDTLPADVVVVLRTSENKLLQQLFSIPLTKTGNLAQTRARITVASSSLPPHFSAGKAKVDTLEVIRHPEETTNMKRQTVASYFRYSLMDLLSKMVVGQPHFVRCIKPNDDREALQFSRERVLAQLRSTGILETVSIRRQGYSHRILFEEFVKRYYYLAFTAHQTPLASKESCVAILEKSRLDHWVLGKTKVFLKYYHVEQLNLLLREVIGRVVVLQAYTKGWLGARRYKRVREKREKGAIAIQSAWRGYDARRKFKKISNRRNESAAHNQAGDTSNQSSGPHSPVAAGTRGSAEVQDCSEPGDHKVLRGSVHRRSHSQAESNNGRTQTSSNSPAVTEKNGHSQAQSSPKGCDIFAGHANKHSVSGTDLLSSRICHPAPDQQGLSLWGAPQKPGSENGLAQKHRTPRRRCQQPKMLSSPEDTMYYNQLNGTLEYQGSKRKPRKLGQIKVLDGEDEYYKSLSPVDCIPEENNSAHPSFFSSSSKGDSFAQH

Row | Structure (SMILES) | fold change (FC) [1] | fold change (FC) [2] | inhibition [3] [%]
1 | CNC(=O)c1ccccc1Oc1nc(Nc2cc(OC)c(OC)c(OC)c2)ncc1Br | 0.01 | – | –
2 | CC(C)[C@H](NC(=O)c1cc(-c2cnn3cc(-c4ccc(OCCN5CCCCC5)cc4)cnc23)cs1)C(F)(F)F | – | 0.11 | 6
